The test concerns the target T1, VMAT2 (Rattus norvegicus, UniProt Q01827).
T1 construct: the VMAT2 present in isolated cerebral cortical vesicles; from tissue; host or cells: rat cerebral cortex, synaptic vesicles purified by differential centrifugation
Description: VMAT2 functional assay ([3H]-dopamine uptake into isolated vesicles). It is filed as biochemical. Particulars: rat cortical vesicles, [3H]-dopamine 30 nM, 30 min pre-incubation, 15 min uptake, room temperature. As for the experimental part: VMAT2 Functional Assay determines the interaction between the compounds of the present invention and the VMAT2 present in isolated cerebral cortical vesicles.
Transporter Source: Rat cortical vesicles
Buffers: 100 mM potassium tartrate, 1.7 mM ascorbic acid, 0.05 mM EGTA, 0.1 mM EDTA, 2 mM Magnesium-ATP and 25 mM HEPES.
RadioLigand: • Monoamine: [3H]-Dopamine • Final ligand concentration: 30 nM
Vmax (transport rate): 1800 fmol/mg tissue/min
Positive reference-control: • Reserpine • Concentration: 10 μM
(1) Rat cortical vesicles were purified using differential centrifugation, and the vesicles obtained were diluted in the assay buffer and pre-incubated with the positive-reference-control, the comparative sample or a compound of the invention for 30 minutes at room temperature.
(2) Uptake begins with the addition of [3H]-dopamine and the mixture is allowed to incubate for 15 minutes at room temperature.
(3) After that time, the reaction was stopped by vacuum filtration, and the amount of radioactivity of the radiolabeled [3H]-dopamine trapped onto the filters was determined.
(4) The radioactivity of the [3H]-dopamine trapped was determined using liquid scintillation spectrophotometry (Beckman and Perkin Elmer). The amount of radioactivity obtained with the comparative sample or a compound of the invention was compared with the amount of radioactivity obtained with the positive-reference control (reserpine).
The IC50 value is converted to an absolute inhibition constant Ki using the Cheng-Prusoff equation. Two separate independent experiments were performed.

[1] abbreviates: Experiment 1, read-out: IC50 (nM) Experiment 1.

What is called IC50 is the concentration that gives 50% inhibition.

Read-outs that look alike come from different tables or passages of the source.

T1 sequence (Q01827 whole entry): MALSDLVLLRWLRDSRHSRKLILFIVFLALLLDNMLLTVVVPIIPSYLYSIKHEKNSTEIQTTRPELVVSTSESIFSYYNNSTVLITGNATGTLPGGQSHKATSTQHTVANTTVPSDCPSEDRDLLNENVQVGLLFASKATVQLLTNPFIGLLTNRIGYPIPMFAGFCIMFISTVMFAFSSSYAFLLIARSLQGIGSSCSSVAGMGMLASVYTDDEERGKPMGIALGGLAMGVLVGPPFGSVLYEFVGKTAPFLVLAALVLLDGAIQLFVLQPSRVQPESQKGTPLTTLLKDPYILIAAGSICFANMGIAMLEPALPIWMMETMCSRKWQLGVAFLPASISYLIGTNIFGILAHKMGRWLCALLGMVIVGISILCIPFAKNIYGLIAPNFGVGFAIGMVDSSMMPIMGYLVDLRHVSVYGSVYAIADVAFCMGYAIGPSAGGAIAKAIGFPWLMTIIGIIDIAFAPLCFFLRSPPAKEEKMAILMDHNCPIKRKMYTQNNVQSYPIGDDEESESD

Take `COc1ccc(CCNCC(O)COc2cccc(C)c2)cc1OC` (racemic) [Bevantolol (IA), (RS)-[2-(3,4-dimethoxyphenyl)ethyl][2-hydroxy-3-(3-methylphenoxy)propyl]amine]: the IC50 reads like this: under setting [1], 42.8 nM; (Experiment 2, read-out: IC50 (nM) Experiment 2) 63 nM.

Consider `CC(COc1ccccc1)N(CCCl)Cc1ccccc1` (racemic) [Phenoxybenzamine (IC), (RS)—N-benzil-N-(2-chloroetyl)-1-phenoxy-propan-2-amine], for which the concentration for half-maximal inhibition (IC50) under setting [1] amounted to 58.1 nM.

Regarding `C[C@@H](NCCCc1cccc(C(F)(F)F)c1)c1cccc2ccccc12` [Cinacalcet (IB)], the 50% inhibitory concentration (IC50) under setting [1] worked out at 44.6 nM.
